Measured values published in article PMC4805781 (International Journal for Parasitology: Drugs and Drug …, 2016).

Columns and labels:
[1] = Double-sink parallel artificial membrane permeability assay; assay type: in vitro ADME
[2] = tested on: Synchronized P. falciparum Dd2 cultures; experiment: Flow cytometric profiling of inhibition, YOYO-1 staining; assay type: cell-based, Plasmodium falciparum; conditions: Dd2, treated at 6 hpi ring stage, 5×EC50, sampled at 12 h intervals
[3] = tested on: P. falciparum HB3 infected cultures; experiment: High content image-based assay of merozoite egress and invasion; assay type: cell-based, Plasmodium falciparum; conditions: HB3, treated at 42 hpi, 10 μM, 24 h
Microsomal stability = assay type: in vitro ADME; conditions: mouse, liver microsomes

## COCCc1ccc(OCC(O)CNC(C)C)cc1 (stereo not shown) [metoprolol]
[1]; pH 5.0
  Permeability pH 5.0 (−logPe): > 5.4 −logPe
[1]; pH 6.2
  Permeability pH 6.2 (−logPe): 4.4 −logPe
[1]; pH 7.4
  Permeability pH 7.4 (−logPe): 3.6 −logPe

## C[C@@H]1CC[C@H]2[C@@H](C)C(=O)O[C@@H]3O[C@@]4(C)CC[C@@H]1[C@]32OO4 [artemisinin]
[2]
  Effect on parasite maturation by flow cytometry (DNA content): maturation is blocked
[3]
  Effect on merozoite egress and invasion: did not block merozoite egress or invasion

## CC(C)C[C@H](NC(=O)[C@H]1O[C@@H]1C(=O)O)C(=O)NCCCCN=C(N)N [E-64]
[3]
  Effect on merozoite egress and invasion: blocked egress

## C[C@]12CC[C@H]3[C@@H](CCC4=CC(=O)CC[C@@]43C)[C@@H]1CC[C@@H]2O [Testosterone]
Microsomal stability
  remaining at 1 h: 26.1%
